Source: publication PMC7181660, “A novel specific PERK activator reduces toxicity and extends survival in Huntington's disease models” (Scientific Reports, 2020)

How the values were obtained:
EIF2AK2 (PKR) = EIF2AK2 (PKR) (Homo sapiens, UniProt P19525); assay: In vitro HotSpot kinase assay on PKR; assay type: biochemical
Method: In vitro kinase assays with purified components and full kinase panel analysis was done at Reaction Biology Corp. (Malvern, PA, USA) using the HotSpot Kinase Assay. Reactions were performed for 20 min at room temp. using ^33P-ATP (Specific activity 10 μCi/μl) with 1 μM total ATP, 20 μM substrate and kinases in the nanomolar range in 20 mM Hepes (pH 7.5), 10 mM MgCl2, 1 mM EGTA, 0.02% Brij35, 0.02 mg/ml BSA, 0.1 mM Na3VO4, 2 mM DTT, 1% DMSO and other required factors depending on the assayed kinase.

STHdh^Q111/111 cells = assay: Toxicity assay: rescue from tunicamycin (ER stress)-induced apoptosis, FACS with propidium iodide (sub-G0/G1); assay type: cell-based, murine
Method: (§1) STHdh^Q111/111 cells (used before[13]) or PERK+/+ or PERK−/− MEFs (kindly provided by David Ron, Univ. Cambridge) were incubated with Tun (10 μg/ml) for 48 h, which results in ER stress-induced cell death. Cells under the same conditions were incubated for the same times, together with Tun, with increasing concentrations of the different PERK modulators (0–120 μM) and the percent of apoptotic cells was measured by FACS cell cycle progression using propidium iodide (PI), considering the fraction beneath G0/G1. The relative apoptosis rate was calculated to be able to compare between compounds and experiments, where for each concentration curve the percent of apoptotic cells was considered 100 at concentration 0 of the PERK modulator, with only Tun. The graphs show the average relative apoptosis rate of at least 3 independent experiments for each compound.
(§2) Cells were washed with PBS and fixed with cold methanol. Before FACS analysis cells were washed with PBS, followed by addition of propidium iodide (PI) solution (10 μg/ml) and analysis by flow cytometry. Cells in sub-G0/G1 were counted as apoptotic/ dead.

PERK−/− MEF cells = assay: Rescue from tunicamycin-induced apoptosis in PERK−/− MEFs; assay type: cell-based; conditions: Tun
Method: as §1, §2

R6/2 HD mouse model [1] = assay: Rotarod test; assay type: in vivo, mice; conditions: 1 mg/kg subcutaneous 28 days
Method: Motor activity was assessed by the rotarod test (San Diego Instruments, CA, USA) (0–25 RPM). Relative slow acceleration was used to discriminate small differences between groups particularly at advanced stages of the disease. All mice were trained together before any experimental procedure was performed to set a common baseline. They were required to stay at least 2 minutes without falling in order to participate in the study. R6/2 mice and control littermates were tested every week after pump transplantation. Each test consisted of 3 consecutive measurements of 5 minutes with inter-trial recess of 5 minutes. The latency to fall was recorded and the best performance of the three trials was considered for the analysis.

HMOX1 mRNA = HMOX1 mRNA (downstream target of NRF2-P) by qPCR; assay type: cell-based, murine; conditions: STHdh^Q7/7 and STHdh^Q111/111 cells
Method: (§3) Total cell RNA was extracted with TRIzol reagent (Invitrogen) according to the manufacturer's instructions. Reverse transcription (RT) was performed with QuantaBio qScript cDNA synthesis kit. Real-time qPCR was carried out using a CFX Connect Real-Time PCR Detection System (BioRad) and the amplifications were done using the SYBR Green PCR Master Mix (pcrbio). Reactions were run in triplicates in three independent experiments. Housekeeping gene GAPDH was used as an internal control to normalize the variability of expression levels.
Suppl. Fig. S5. NRF2 activation but not involvement in cell protection by MK-28. A)
Scheme of NRF2 activation by PERK. B) qPCR of HMOX1, a downstream target of NR F2.
Medians +- interquartile range of 3 independent experiments . P values of STHdhQ7/7 MK 5µM […]
presence of Tun and the indicated concentrations of MK-28, plus increasing concentrations of the NRF2 inhibitor ML385. Average of 3 independent experiments +-SD. D) Apoptosis of STHdhQ111/111 cells treated only with increasing concentrations of ML385. Average of 3 independent experiments +-SD.
(1 picture or pasted object on this page, not shown here)

GADD34 mRNA = GADD34 mRNA by qPCR in STHdh^Q7/7 and STHdh^Q111/111 cells; assay type: cell-based, murine; conditions: both cell types, qPCR vs GAPDH
Method: as §3

WT MEF cells = assay: Rescue from tunicamycin-induced apoptosis in WT MEFs; assay type: cell-based; conditions: Mus musculus, MEF; WT MEFs treated with Tun; read-out: IC50 for inhibition of apoptosis
Method: as §1, §2

R6/2 HD mouse model [2] = assay: Survival of R6/2 mice; assay type: in vivo
Method: All experimental procedures were approved by and conducted in strict compliance with the Institutional Animal Care and Use Committee of Tel Aviv University. Mice were kept in a 12/12-hour light/dark cycle with food and water ad libitum. […]. At three weeks mice were assessed for CAG repeat size using the following primer set: 5’-[…]-3′ and 5′-[…] G-3′. Following Jackson laboratories guidelines, wild type (WT) and TG littermates were kept combined in the same minimally-enriched cages (with cardboard rolls and gauze pads), and after week 8 water and mushed food were placed at the ground level for all the cages. Male mice treatment groups were coded and remained blind to the observers throughout the experiment. Power calculations determined that 16 mice per group was the minimum required to see at least a 20% increase (alpha 0.05, beta 0.2, power 80%) in motor performance and survival of R6/2 mice with MK-28 subcutaneous delivery compared to vehicle. Multiple endpoints were prospectively selected, consistent with the analyses we here report. Data collection was ended before signs of animal suffering or inability to thrive appear.
Alzet pumps model 1004 (Alzet, USA), with a rate of 0.11 µl/hour and 28 days effective compound delivery was used. MK-28 compound was dissolved in 1:1 DMSO/PEG400 and prepared to delivery subcutaneously 6 mg/kg MK-28 for toxicity studies (n = 8) or 1 mg/kg for therapeutic evaluation in R6/2 mice (n = 72). For toxicity studies mice receiving six times the therapeutic dose of MK-28 or vehicle were weighed every two days for two consecutive weeks. […]. Alzet pumps were implanted in 4 weeks old mice and MK-28 was administered at 1 mg/kg with continuous dosing for 28 days. […]

[3] = R6/2 TG, 1 mg/kg subcutaneous 28 days

EIF2AK2 (PKR), sequence (P19525 whole entry): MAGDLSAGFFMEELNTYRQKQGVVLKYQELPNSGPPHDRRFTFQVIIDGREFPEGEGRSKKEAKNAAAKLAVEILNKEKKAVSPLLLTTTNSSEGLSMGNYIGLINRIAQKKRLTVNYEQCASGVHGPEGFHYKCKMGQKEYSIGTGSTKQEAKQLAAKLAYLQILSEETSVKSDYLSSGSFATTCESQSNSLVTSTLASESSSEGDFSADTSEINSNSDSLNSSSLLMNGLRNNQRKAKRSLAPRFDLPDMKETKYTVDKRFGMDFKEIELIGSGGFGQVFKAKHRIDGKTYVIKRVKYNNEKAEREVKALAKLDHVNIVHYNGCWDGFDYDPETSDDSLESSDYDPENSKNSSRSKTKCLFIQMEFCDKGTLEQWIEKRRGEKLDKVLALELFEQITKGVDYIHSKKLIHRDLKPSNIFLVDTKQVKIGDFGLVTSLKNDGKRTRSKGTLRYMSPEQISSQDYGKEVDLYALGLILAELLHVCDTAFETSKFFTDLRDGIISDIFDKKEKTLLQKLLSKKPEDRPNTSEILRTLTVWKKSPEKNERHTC

With `CN(/N=C\c1ccc(O)c(O)c1)c1nc(-c2ccccc2)cc(-c2ccccc2)n1` [MK-28] the “effect on EIF2AK2 (PKR) activity” value (EIF2AK2 (PKR)) was “little or no effect”, the “rescue from ER stress-induced apoptosis” value (STHdh^Q111/111 cells; 0–100 μM, 48 h Tun exposure (Fig. 1C)) was “able to rescue the cells from apoptosis” and the reduction of apoptosis (STHdh^Q111/111 cells; 5 μM, 48 h Tun exposure) was 20%. The reduction of apoptosis (STHdh^Q111/111 cells; 10 μM, Tun (Fig. 4C)) was 40%, the reduction of apoptosis (STHdh^Q111/111 cells; 100 μM, 48 h Tun exposure) was 5 fold and the “IC50 ratio MK-28 vs CCT020312 in rescuing mHtt-expressing striatal neurons from apoptosis” value (STHdh^Q111/111 cells; Fig. 4C) was ~ 3 fold. The IC50 (STHdh^Q111/111 cells; Mus musculus, STHdhQ111, STHdh^Q111/111 cells treated with Tun, read-out: IC50 for inhibition of apoptosis) was 6.8 µM, the “concentration that showed identical levels of apoptosis in STHdh^Q111/111 and STHdh^Q7/7 cells” value (STHdh^Q111/111 cells; Tun (Fig. 1D)) was 50 µM and the “protection from ER stress-induced cell death” value (PERK−/− MEF cells) was “failed to protect”. For the same compound, the “motor performance (rotarod) of TG mice vs untreated TG” value (R6/2 HD mouse model [1]; R6/2 TG, week 4) was “significant improvements in motor performance”, the “motor performance (rotarod) of WT animals” value (R6/2 HD mouse model [1]; WT mice) was “no compromised motor performance” and the “HMOX1 mRNA levels” value (HMOX1 mRNA) was “upregulation”. The “increase of GADD34 mRNA levels” value (GADD34 mRNA) was no more than 5 fold, the IC50 (WT MEF cells) was 1.7 µM and the “extension of median survival and death initiation” value (R6/2 HD mouse model [2]; 28-day treatment in young R6/2 mice) was 10%. For the same compound, the “survival curve ratio (Gehan-Breslow-Wilcoxon test)” value (R6/2 HD mouse model [2]; 95% CI 0.7726 to 4.611) was 1.887, the “delay of death initiation” value (R6/2 HD mouse model [2]; [3]) was 10 days and the “increase of median survival compared to controls” value (R6/2 HD mouse model [2]; [3]) was 8 days. For the same compound, the median survival (R6/2 HD mouse model [2]; [3]) was 97 days.
